The values below come from paper PMC11643494, “Structure–Activity Relationship Studies in a Series of 2-Aryloxy-N-(pyrimidin-5-yl)acetamide Inhibitors of SLACK Potassium Channels” (Molecules, 2024).

The target of the assay is T1, Human G288S SLACK (Homo sapiens, UniProt Q5JUK3, G269S).
T1 construct: host or cells: CHO-K1
T1 sequence (Q5JUK3 1-1235 isoform Q5JUK3-3 G288S): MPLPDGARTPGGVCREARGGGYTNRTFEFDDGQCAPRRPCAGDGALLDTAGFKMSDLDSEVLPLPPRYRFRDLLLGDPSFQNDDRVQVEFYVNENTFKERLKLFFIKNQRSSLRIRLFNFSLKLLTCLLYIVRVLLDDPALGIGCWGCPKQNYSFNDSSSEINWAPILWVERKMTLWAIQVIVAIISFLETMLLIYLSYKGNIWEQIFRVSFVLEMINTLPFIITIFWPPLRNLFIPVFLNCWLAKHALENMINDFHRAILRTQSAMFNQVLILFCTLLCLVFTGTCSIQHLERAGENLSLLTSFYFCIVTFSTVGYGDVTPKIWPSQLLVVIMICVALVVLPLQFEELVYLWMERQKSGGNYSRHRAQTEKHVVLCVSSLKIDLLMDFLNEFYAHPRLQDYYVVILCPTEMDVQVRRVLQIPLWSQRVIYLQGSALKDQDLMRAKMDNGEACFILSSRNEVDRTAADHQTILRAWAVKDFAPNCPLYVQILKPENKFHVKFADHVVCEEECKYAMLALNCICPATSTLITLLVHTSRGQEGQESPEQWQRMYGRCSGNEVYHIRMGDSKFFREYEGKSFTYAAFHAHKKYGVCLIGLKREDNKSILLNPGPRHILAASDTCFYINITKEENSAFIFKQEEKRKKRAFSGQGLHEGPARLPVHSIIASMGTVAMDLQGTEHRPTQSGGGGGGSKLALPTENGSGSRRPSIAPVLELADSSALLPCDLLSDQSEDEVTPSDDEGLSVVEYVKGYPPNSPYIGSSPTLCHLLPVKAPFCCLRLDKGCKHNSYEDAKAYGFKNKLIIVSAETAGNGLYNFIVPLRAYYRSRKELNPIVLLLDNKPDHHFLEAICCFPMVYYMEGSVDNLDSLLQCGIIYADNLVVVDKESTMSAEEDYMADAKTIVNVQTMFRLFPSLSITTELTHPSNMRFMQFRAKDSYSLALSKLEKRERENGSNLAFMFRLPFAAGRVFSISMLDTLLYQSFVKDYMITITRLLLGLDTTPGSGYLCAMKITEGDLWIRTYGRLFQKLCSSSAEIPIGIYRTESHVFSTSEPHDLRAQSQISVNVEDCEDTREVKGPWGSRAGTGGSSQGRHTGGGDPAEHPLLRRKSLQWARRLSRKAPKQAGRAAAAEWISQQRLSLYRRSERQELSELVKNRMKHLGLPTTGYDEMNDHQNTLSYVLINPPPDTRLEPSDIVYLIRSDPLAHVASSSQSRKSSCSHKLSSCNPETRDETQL
Kind of assay: Whole-cell APC in CHO-K1 cells stably expressing human G288S SLACK. It counts as cell-based. From the text: Finally, we chose to screen the same two compounds versus mouse SLACK and two clinically relevant GOF SLACK mutants in APC assays utilizing CHO-K1 cells stably expressing these targets (Table 7). Screening versus the mouse homolog was deemed important for evaluating the potential of the series to ultimately lead to a useful in vivo tool via further optimization.
Stably transfected monoclonal HEK293 cell lines expressing SLICK, Maxi-K α1/β3, Maxi-K α1/β4, CaV3.2, GIRK 1/2, KV2.1, KV7.2, NaV1.7, and TASK-1 were generated as previously described. Stably transfected monoclonal HEK293 cell lines expressing hERG were generated as previously described. CHO-K1 cells expressing human SLACK and disease-associated human SLACK mutations, G288S and A934T, were generated by transfecting a PiggyBac TRE mammalian expression vector (VectorBuilder, Chicago, IL, USA) containing KCNT1. FuGENE 6 (Promega, Madison, WI, USA) transfection reagent and protocol, together with Opti-MEM (Thermo Fisher Scientific, Waltham, MA, USA), were utilized according to the manufacturer’s instructions.
Automated patch clamp recording was performed with a SyncroPatch 768 PE system (Nanion, Munich, Germany) as previously described. Whole-cell recordings were performed at room temperature. Cells were harvested by first washing with PBS without Mg^2+ or Ca^2+ (Gibco, Billings, MT, USA) to remove cell culture medium, followed by dissociation with TryPLE (Gibco, Billings, MT, USA). Cells were then resuspended and diluted to 200,000 cells/mL in external solution. External solution contained 105 mM NaCl, 4 mM KCl, 1 mM MgCl2, 5 mM CaCl2, 10 mM HEPES, 40 mM N-Methyl-D-glucamine chloride, titrated to pH 7.4 with NaOH and osmolarity of 300 mOsm/kg; internal solution contained 70 mM NaCl, 70 mM KF, 10 mM KCl, 5 mM EGTA, 5mM HEPES, titrated to a pH 7.2 with KOH and osmolarity of 295 mOsm/kg.
The APC protocol was set as following: Cells were held at […] −80 mV for 100 ms, then a ramp protocol was performed from −100 mV to 80 mV at 0.4 mV/ms, hold the cell at −80 mV for another 100 ms, then steps were performed at −20 mV, 0 mV, +20 mV, +40 mV, and +60 mV for 100 ms of each step. Whole-cell currents were measured at 0 mV and normalized to current after external buffer addition.

The IC50 is the concentration that inhibits the measured activity by half.

In the case of `CC(C)(Oc1ccc(Cl)cc1)C(=O)Nc1cnc(Oc2c(F)cccc2F)nc1` [Analog 40], the “G288S SLACK inhibition, result in words” value (APC, CHO-K1 cells) was “inactive”.
On to `CN(c1ccc(C#N)cc1)c1ncc(NC(=O)C(C)(C)Oc2ccc(Cl)cc2)cn1` [Analog 66], for which the “G288S SLACK inhibition, result in words” value (APC, CHO-K1 cells) is reported as “only weakly active”. Further, the IC50 (APC, CHO-K1 cells, Human G288S SLACK) was greater than 10 µM. In addition, the Imax (Human G288S SLACK, maximum inhibition at 30 µM standardized to VU0606170 (set at 100%)) is on record as 40%.
